{
  "source": "patent US9539218B2",
  "about": "“Prevention and treatment of thromboembolic disorders” (BAYER INTELLECTUAL PROPERTY GMBH, priority 2005, dated 2017)",
  "key": {"[1]": {"tested_on": "patients undergoing elective primary total hip replacement", "conditions": "for Primary efficacy, composite endpoint (DVT, PE, death) incidence rate / Primary efficacy, composite endpoint, n of patients with event: 7-9 days", "protocol": "This was a dose guiding study for the direct factor Xa inhibitor (I). Objective of the study was the assessment of safety, tolerability, and efficacy of (I) at different oral doses (bid and od) compared with subcutaneously administered enoxaparin 40 mg in the prevention of venous thromboembolism.\n642 patients were enrolled in this study and the treatment duration was 7 to 9 days.\nThe main inclusion criteria for the study were: men ≧18 years of age and postmenopausal women undergoing elective primary total hip replacement.\nThis was a prospective, randomized, open-label, active comparator controlled, multi-center and multi-national trial designed as a proof-of-principle dose-escalating study in patients undergoing elective primary total hip replacement.\n(I) was administered orally as rapid release tablets.\nThe criteria for evaluation were: • a) The primary efficacy endpoint was a composite endpoint of • Any deep vein thrombosis (DVT) (proximal and/or distal). • Non-fatal pulmonary embolism (PE). • Death from all causes. • The primary endpoint was evaluated 5-9 days after surgery."}, "[2]": {"conditions": "at steady state in humans, healthy male subjects, multiple dose escalation; cited from earlier work"}, "[3]": {"conditions": "(I) 2.5 mg bid oral, PP population N = 63"}, "[4]": {"conditions": "(I) 5 mg bid oral, PP population N = 63"}, "[5]": {"conditions": "(I) 10 mg bid oral, PP population N = 55"}, "[6]": {"conditions": "(I) 20 mg bid oral, PP population N = 59"}, "[7]": {"conditions": "(I) 30 mg bid oral, PP population N = 46"}, "[8]": {"conditions": "(I) 30 mg od oral, PP population N = 73"}},
  "note": "Read-outs that look alike come from different tables or passages of the source.",
  "data": [
    {"compound": "O=C(NC[C@H]1CN(c2ccc(N3CCOCC3=O)cc2)C(=O)O1)c1ccc(Cl)s1", "note": "[(I), 5-Chloro-N-({(5S)-2-oxo-3-[4-(3-oxo-4-morpholinyl)-phenyl]-1,3-oxazolidin-5-yl}-methyl)-2-thiophenecarboxamide]", "values": [
      {"measurement": "DVT rate", "setting": "[1]; 30 mg (I) once daily for 7 to 9 days, 73 patients undergoing THR surgery", "result": 12.3, "unit": "%"},
      {"measurement": "Prevention of venous thromboembolism (VTE)", "setting": "[1]; 7-9-day treatment, 2.5 to 30 mg bid, adults undergoing elective hip replacement, compared with enoxaparin", "result": "prevented venous thromboembolism (VTE)"},
      {"measurement": "Primary efficacy, composite endpoint (DVT, PE, death) incidence rate", "setting": "[1]; [3]", "result": 22.2, "unit": "%"},
      {"measurement": "Primary efficacy, composite endpoint, n of patients with event", "setting": "[1]; [3]", "result": 14},
      {"measurement": "Primary efficacy, composite endpoint (DVT, PE, death) incidence rate", "setting": "[1]; [4]", "result": 23.8, "unit": "%"},
      {"measurement": "Primary efficacy, composite endpoint, n of patients with event", "setting": "[1]; [4]", "result": 15},
      {"measurement": "Primary efficacy, composite endpoint (DVT, PE, death) incidence rate", "setting": "[1]; [5]", "result": 20.0, "unit": "%"},
      {"measurement": "Primary efficacy, composite endpoint, n of patients with event", "setting": "[1]; [5]", "result": 11},
      {"measurement": "Primary efficacy, composite endpoint (DVT, PE, death) incidence rate", "setting": "[1]; [6]", "result": 10.2, "unit": "%"},
      {"measurement": "Primary efficacy, composite endpoint, n of patients with event", "setting": "[1]; [6]", "result": 6},
      {"measurement": "Primary efficacy, composite endpoint (DVT, PE, death) incidence rate", "setting": "[1]; [7]", "result": 17.4, "unit": "%"},
      {"measurement": "Primary efficacy, composite endpoint, n of patients with event", "setting": "[1]; [7]", "result": 8},
      {"measurement": "Primary efficacy, composite endpoint (DVT, PE, death) incidence rate", "setting": "[1]; [8]", "result": 15.1, "unit": "%"},
      {"measurement": "Primary efficacy, composite endpoint, n of patients with event", "setting": "[1]; [8]", "result": 11},
      {"measurement": "plasma concentration half life", "setting": "[2]", "result": "4 to 6", "unit": "h"}
    ]}
  ]
}
